Measurements as given in patent US20240122954A1 (YEP BIO CO. LTD., priority 2021, published 2024).

Experiments:
BV2 cells [1] = assay: Cytotoxicity of eleutheroside B to microglia (CCK-8/WST-8 survival rate); assay type: cell-based; conditions: 24 hours, mean±standard deviation
Procedure: (§1) BV2 cells were cultured in high glucose DMEM medium containing 10% FBS and penicillin-streptomycin solution (5000 units/ml penicillin, 5 mg/ml streptomycin, Corning, USA) in a cell incubator at 37° C. in 5% CO2, which was used by subculturing three times a week therein.
(§2) Cultured BV2 cells were harvested using 0.1% trypsin to obtain a population, and cultured in 96-well plates pre-coated with Poly-D-Lysine (Sigma).
In order to check the cytotoxicity of eleutheroside B, BV2 cells (3×10^5 cells/well) were cultured in a 96-well culture plate for 24 hours, and then treated with various concentrations of eleutheroside B, followed by incubation for 24 hours. After 24 hours, the medium was removed and WST-8 [2-(2-methoxy-4-nitrophenyl)-3-(4-nitrophenyl)-5-(2,4-disulfophenyl)-2H-tetrazolium (Cell Counting Kit-8 (CCK-8), dojindo)] was added at a concentration of 100 uL/mL to induce a reduction reaction while incubating for 1 hour, and then absorbance (450 nm) was measured. Cell viability (%) (viability (%)=(treated group−negative control)/(positive control−negative control)×100) was calculated using the eleutheroside B treated group and the untreated control group.

astrocytes [2] = assay: Inhibition of LPS-induced astrocyte activity (cell number, cell area, GFAP intensity; high content imaging); assay type: cell-based, rats; conditions: LPS-activated astrocytes
Procedure: The brains of 1-2 day old rats were excised, separated from the cerebral cortex, and cultured. That is, the […] cortex was divided into single cells in high-glucose DMEM medium containing 10% FBS and penicillin-streptomycin solution (5000 units/ml penicillin, 5 mg/ml streptomycin, Corning, USA), and cultured in a 75-cm2T flask. (0.5 hemispheres/flask) in a cell incubator at 5% CO2 and 37° C.
After 1 week of culture, microglia were removed by shaking at 250 rpm for 4 hours, and the cultured astrocytes were harvested using 0.1% trypsin to obtain an astrocyte population. Astrocytes were cultured in 6-well plates previously coated with Poly-D-Lysine (Sigma).
Astrocytes were used after primary culture was isolated from the brain of pup within 1 to 3 days after birth, and the separated astrocytes were treated with LPS at expressing the lowest concentration of IL-6. The drug treatment was performed simultaneously with LPS, and the activity of astrocytes was evaluated through the number of proliferated cells and changes in morphology (FIG. 2).

astrocytes [3] = assay: Cytokine secretion of LPS-treated astrocytes (multiplexing of conditioned media); assay type: cell-based, rats; conditions: conditioned media after 24 hours
Procedure: In order to more accurately study the above effect, the secretion of cytokines was observed simultaneously with the effect of inhibiting the activity of astrocytes. After 24 hours of treatment with LPS and drugs, conditioned media were collected and changes in pro-inflammatory cytokines (TNFα) and anti-inflammatory cytokines (IL-10) were examined.

[4] = system: BV2 cells, a microglia cell line; assay: Inhibition of LPS-induced microglia activity (cell number, Iba1 fluorescence intensity); assay type: cell-based; conditions: for fluorescence intensity of Iba1 (FIG. 8) / number of cells (FIG. 8): LPS-treated microglia, 24 hours
Procedure: as §1, §2
BV2 cells, a microglia cell line, were treated with LPS to induce microglia activation and inflammation, and eleutheroside B was treated at a concentration of 1 mM to 0.1 nM. The proliferation number and morphology changes after 24 hours of eleutheroside B treatment were quantified, and the activity level of microglial cells was verified by the fluorescence intensity of Iba1 (FIG. 6).
In order to confirm the regulation of the inflammatory response through the inhibition of microglia activity by eleutheroside B in a more precise way, high content imaging was analyzed by classifying into the number of proliferated cells and the fluorescence intensity of Iba1, and the results are shown in FIG. 8.

microglia = assay: Cytokine secretion of LPS-treated microglia (multiplexing of conditioned media); assay type: cell-based; conditions: conditioned media after 24 hours
neural stem cells = assay: Neurite activity from neural stem cells of B6;SJL-Tg(APPSWE)2576Kha transgenic mice; assay type: cell-based; conditions: 0.01 pg/mL and 1 pg/mL, compared to the control group
Procedure: (§3) B6;SJL-Tg(APPSWE)2576Kha, a genetically modified mouse for […], was used as an in-vitro brain disease model. Neural stem cells were isolated from subventricular zone (SVZ) tissues of transgenic newborn mice and neurospheres were cultured. In addition, neurosphere cells were induced to attach to the bottom with 5% FBS+F12/DMEM medium for 48 hours, and to observe differentiation potential, eleutheroside B in 5% BS+F12/DMEM medium was added to the cells, and neurite activity was observed under a microscope. In addition, the neuronal cell differentiation potential using the Neuro-2a cell line, which is a neuroblast, was confirmed. To confirm differentiation, neural differentiation markers such as DCX, Tuj1, neuroD, and NeuN were confirmed by qPCR.
In order to confirm the activity of neurite from neural stem cells according to eleutheroside B treatment, B6;SJL-Tg(APPSWE)2576Kha, a genetically modified mouse for degenerative brain disease, was used as an in-vitro brain disease model. Neural stem cells were isolated from the subventricular zone (SVZ) tissue of genetically modified newborn mice, and the number of cells to be used in the experiment was secured through neurosphere culture. […]

Neuro-2a = assay: Neuronal differentiation marker analysis by qPCR in neuroblast cell line; assay type: cell-based; conditions: compared to the control
Procedure: as §3
In order to examine this at a molecular level, RNA analysis of neuronal differentiation markers (Sox2, Nestin, NeuroD, DCX, Tuj-1, NeuN) was performed, and the results are shown in FIG. 11.
When confirming the neuronal differentiation marker, a neuroblast cell line, Neuro-2a was used, and the differentiation was confirmed by qPCR to observe if the amoeba-type metaphase cells were differentiated into neurons by the drug.

5×FAD = assay: Working memory ability (Y-maze) in 5×FAD Alzheimer's disease animal model; assay type: in vivo, mouse; conditions: 50 or 150 mg/kg intraperitoneally twice a week from 4 months, measured at 6 months
Procedure: (§4) In 5×FAD, an animal model of Alzheimer's disease, amyloid protein is deposited from 2.5 months and cognitive function is impaired from 6 months. Accordingly, eleutheroside B (vehicle, 50 or 150 mg/kg) was intraperitoneally administered twice a week from 4 months, and working memory ability was measured at 6 months when cognitive function was impaired. The experimental groups were 3 animals each of WT+vehicle, TG+vehicle, TG+50 mg/kg (TG_E.B(L)), and TG+150 mg/kg (TG_E.B(H)) of the same age as TG. Working memory ability was measured with Y-maze, and pre-adaptation training for the maze was performed the day before the maze experiment.
Working memory performance was performed by sequentially moving through three passages for 8 minutes in a Y-shaped maze to check whether the movement to the previous passage was remembered, and the degree of cognitive impairment was confirmed by calculating the ratio of sequentially crossing the three passages.

astrocytes (GFAP) = assay: Brain immunohistochemistry of astrocyte activity (GFAP) in hippocampus of 5×FAD; assay type: in vivo, mouse; conditions: 50 or 150 mg/kg intraperitoneally twice a week
Procedure: as §4
(§5) In order to confine the pathological changes related to cognitive improvement, blood was removed by perfusion through the heart. The blood-free brain was fixed in 4% paraformaldehyde for one day, then made into a paraffin block and fabricated into 4 μm tissue sections for histological staining. The activities of astrocytes (GFAP) and microglia (Iba 1) were measured by confocal microscopy in the dentate gyrus, CA1, and CA3 regions of the hippocampus and the entorhinal cortex, which are major damaged areas in Alzheimer's disease.

microglia (Iba 1) = assay: Brain immunohistochemistry of microglia activity (Iba 1) in hippocampus of 5×FAD; assay type: in vivo, mouse; conditions: 50 or 150 mg/kg intraperitoneally twice a week
Procedure: as §4, §5

BV2 cells [5] = conditions: according to the report; cited from earlier work
[6] = 1-10 nM drug, compared to LPS activity

COc1cc(/C=C/CO)cc(OC)c1O[C@@H]1O[C@H](CO)[C@@H](O)[C@H](O)[C@H]1O [eleutheroside B]
survival rate (BV2 cells [1]; 20 uM): 92±13.3%
survival rate (BV2 cells [1]; 40 uM): 88±24.8%
GFAP fluorescence intensity (FIG. 3) (astrocytes [2]; 0.01 pg of eleutheroside B): reduced to almost the same intensity as the control
cell area (FIG. 4) (astrocytes [2]; [6]): reduced
intensity of GFAP (FIG. 4) (astrocytes [2]; [6]): reduced
number of proliferated cells (FIG. 4) (astrocytes [2]; [6]): showed cell proliferation compared to LPS activity
anti-inflammatory cytokine IL-10 secretion (astrocytes [3]): increased
pro-inflammatory cytokine TNF-α secretion (astrocytes [3]): decreased
Iba1 fluorescence intensity (FIG. 7) ([4]; LPS-activated microglia, 10 nM): reduced to almost the same intensity as that of the control
fluorescence intensity of Iba1 (FIG. 8) [4]: decrease
number of cells (FIG. 8) [4]: increased
anti-inflammatory cytokine IL-10 secretion (microglia): increased
pro-inflammatory cytokine TNF-α secretion (microglia): significant decrease in the pro-inflammatory cytokine TNF-α was not confirmed
neurites (FIG. 10) (neural stem cells): showed an increase in neurites
DCX (differentiation marker) (Neuro-2a): slight increase
Tuj1 (differentiation marker) (Neuro-2a): slight increase
nestine (expansion phase marker) (Neuro-2a): significant increase
neuN (integration phase marker) (Neuro-2a): significant increase
neuroD (differentiation phase marker) (Neuro-2a): significant increase
sox2 (expansion phase marker) (Neuro-2a): significant increase
working memory ability (Y-maze) (5×FAD): almost the same remarkable cognitive ability improvement as the control group
activity of astrocytes / inflammation in CA1 of the hippocampus (FIG. 15) (astrocytes (GFAP)): greatly reduced
fluorescence intensity of Iba 1 in hippocampus (FIG. 16) (microglia (Iba 1)): lower than that of the Alzheimer's disease animal model
microglia / inflammation in CA1 of the hippocampus (FIG. 18) (microglia (Iba 1)): greatly reduced almost as in the normal state
inflammation / activity of microglial cells in all areas of the hippocampus (FIG. 17) (microglia (Iba 1); compared to the Alzheimer's disease animal model): suppressed
concentration at which cytotoxicity was reported (BV2 cells [5]): 40 µM

COc1cc2c(cc1OC)C(=O)C(CC1CCN(Cc3ccccc3)CC1)C2 (centres unmarked) [donepezil, reference compound]
anti-inflammatory cytokine IL-10 secretion (astrocytes [3]): did not affect cytokine secretion
pro-inflammatory cytokine TNF-α secretion (astrocytes [3]): did not affect cytokine secretion
fluorescence intensity of Iba1 (FIG. 8) [4]: relatively less microglial activity inhibition pattern than eleutheroside B
number of cells (FIG. 8) [4]: inhibiting microglia apoptosis
anti-inflammatory cytokine IL-10 secretion (microglia): does not affect cytokine secretion
pro-inflammatory cytokine TNF-α secretion (microglia): does not affect cytokine secretion
